Test results as given in patent publication US20090286740A1, “PEPTIDES AND DERIVATIVES THEREOF, THE MANUFACTURING THEREOF AS WELL AS THEIR USE FOR PREPARING A THERAPEUTICALLY AND/OR PREVENTIVELY ACTIVE PHARMACEUTICAL COMPOSITION” (FIBREX MEDICAL RESEARCH & DEVELOPMENT GMBH, priority 2008, published 2009).
Where no end group is shown, it is not given here.

T1: vascular endothelial (VE) cadherin (human, UniProt P33151 48-784)
T1 sequence (looked up): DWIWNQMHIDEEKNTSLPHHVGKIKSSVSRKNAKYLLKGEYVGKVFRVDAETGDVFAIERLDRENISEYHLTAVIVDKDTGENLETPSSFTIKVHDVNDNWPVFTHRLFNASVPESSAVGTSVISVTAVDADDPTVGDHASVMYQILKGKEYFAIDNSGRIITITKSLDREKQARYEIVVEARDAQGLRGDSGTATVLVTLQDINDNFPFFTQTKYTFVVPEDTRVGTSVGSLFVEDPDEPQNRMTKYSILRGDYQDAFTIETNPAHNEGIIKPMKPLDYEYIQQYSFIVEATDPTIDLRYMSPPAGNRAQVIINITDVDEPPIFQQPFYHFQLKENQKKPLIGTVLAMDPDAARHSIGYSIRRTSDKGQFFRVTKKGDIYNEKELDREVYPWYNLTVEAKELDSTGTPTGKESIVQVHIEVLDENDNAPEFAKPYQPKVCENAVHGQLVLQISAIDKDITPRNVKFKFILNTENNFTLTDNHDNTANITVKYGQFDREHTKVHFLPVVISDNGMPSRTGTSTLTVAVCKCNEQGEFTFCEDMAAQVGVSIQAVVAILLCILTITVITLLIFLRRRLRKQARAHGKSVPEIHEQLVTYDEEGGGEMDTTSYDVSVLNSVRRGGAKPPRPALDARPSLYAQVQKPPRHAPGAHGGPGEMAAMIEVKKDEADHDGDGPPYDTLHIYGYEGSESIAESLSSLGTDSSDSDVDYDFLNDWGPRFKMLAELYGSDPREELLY


Experiments:
[1] = test system: RhoA; experiment: thrombin induced RhoA activation in HUVEC culture (active RhoA pull-down, blot); assay type: cell-based, human; settings: 5 U/ml thrombin alone, 5 min
Protocol: The biological effect of the compounds was established in a model thrombin induced RhoA activation in human umbilical vein endothelial cell (HUVEC) culture.
HUVEC are grown to confluence under standard conditions. Before induction of Rho activity HUVEC were starved for 4 h by using IMDM (Gibco) without growth factor and serum supplements. After the starvation period 5 U/ml Thrombin (Calbiochem) or 5 U thrombin plus 50 μg/ml of test compound are added to the starvation medium for 1, 5 and 10 min. Active RhoA was isolated using Rho Assay Reagent from Upstate according to manufactures instructions. Isolates were separated on a 15% polyacrylamid gel and blotted on Nitrocellulose-Membrane (Bio-Rad). RhoA was dedected by using Anti-Rho (-A, -B, -C), clone55 from Upstate (1:500).

[2] = molecular target: T1, vascular endothelial (VE) cadherin; experiment: cell-based or functional assay

| Molecule | Relative RhoA stimulation compared to unstimulated control [1] | Relative RhoA stimulation compared to unstimulated control (thrombin-induced RhoA activation in HUVEC, Rho pull-down and blot; thrombin alone 5 min = 2.6) [2] |
| --- | --- | --- |
| thrombin | 2.6 |  |
| GHRPLAPSLRPAPPPISGGGYR-OH [Gly-His-Arg-Pro-Leu-Ala-Pro-Ser-Leu-Arg-Pro-Ala-Pro-Pro-Pro-Ile-Ser-Gly-Gly-Gly-Tyr-Arg-OH] |  | 1.2 fold relative to unstimulated control |
